The subject of assay [1] is parental wild-type Ba/F3 cells. Kind of assay: Ba/F3 (WT) cell proliferation assay (Alamar Blue). It counts as cell-based. As to conditions: Mus musculus; for IC50: BaF3, 72 h, read-out: BaF3 WT prolif (μM); for pIC50: BaF3, 72 hours, Alamar Blue, read-out: BaF3 WT prolif.
Assay [2] relates to LP-1 cell line (FGF-1/Heparin induced pERK). Kind of assay: Cell-based pERK ELISA, LP-1 cells. As to conditions: Homo sapiens; for IC50: LP-1, read-out: LP-1 pERK ELISA (μM). For orientation: ELISA stands for enzyme-linked immunosorbent assay.
Where [3] appears, read: BaF3, read-out: BaF3 WT prolif, % inhibition.

Molecules are shown by their SMILES. pIC50: −log10 of the molar value. Where a name gives a salt, the structure may show the parent alone. Read-outs that look alike come from different tables or passages of the source.

The inhibition is the share of the control response that was lost under treatment. Regarding `CCOC(=O)C(C)(C)n1cc(-c2ccn3c(-c4cccc(NC(=O)NCC(F)(F)F)c4)cnc3c2)cn1` [Example 2, 2-Methyl-2-[4-(3-{3-[3-(2,2,2-trifluoroethyl)ureido]phenyl}imidazo [1,2-a]pyridin-7-yl)pyrazol-1-yl] propionic acid ethyl ester], the inhibition at 10 µM in assay [1] (setting [3]) stood at 12%. Also, the inhibition at 0.003 µM in assay [2] (LP-1, read-out: LP-1 pERK ELISA, % inhibition) worked out at 62%.
For the molecule `O=C(NCC(F)(F)F)Nc1cccc(-c2cnc3cc(-c4cnn(C5CCNC5)c4)ccn23)c1` (stereo not shown) [Example 45, 1-{3-[7-(1-Pyrrolidin-3-yl-1H-pyrazol-4-yl)-imidazo[1,2-a]pyridin-3-yl]-phenyl}-3-(2,2,2-trifluoro-ethyl)-urea], the inhibition at 10 µM in assay [1] (setting [3]) is 0%. In addition, the IC50 in assay [2] came out at 0.35 µM.
For `COc1cncc(-c2ccn3c(-c4cccc(NC(=O)NCC(F)(F)F)c4)cnc3c2)n1` [Example 90, 1-{3-[7-(6-Methoxy-pyrazin-2-yl)-imidazo[1,2-a]pyridin-3-yl]-phenyl}-3-(2,2,2-trifluoro-ethyl)-urea formate], the figures for the IC50 in assay [1] and in assay [2] were 0.76 µM and 0.092 µM, respectively.
On to `Cc1ncc(C#Cc2ccn3c(-c4cccc(NC(=O)NCC(F)(F)F)c4)cnc3c2)n1C` [Example 64, 1-{3-[7-(2,3-Dimethyl-3H-imidazol-4-ylethynyl)-imidazo[1,2-a]pyridin-3-yl]-phenyl}-3-(2,2,2-trifluoro-ethyl)-urea], for which, in assay [1], the pIC50 is 5.60. For the same molecule, the IC50 in assay [2] turned out to be 0.049 µM.
On to `O=C(NCC(F)(F)F)Nc1cccc(-c2cnc3cc(-c4ccc(N5CCCCC5)nn4)ccn23)c1` [Example 7, 1-{3-[7-(6-Piperidin-1-yl-pyridazin-3-yl)-imidazo[1,2-a]pyridin-3-yl]phenyl}-3-(2,2,2-trifluoroethyl)urea], for which the pIC50 in assay [1] was 6.07. Further, the IC50 in assay [2] worked out at 0.0063 µM.
Consider `O=C(NCC(F)(F)F)Nc1cccc(-c2cnc3cc(-c4ccc(N5CCCCC5)nc4)ccn23)c1` [Example 49, 1-{3-[7-(3,4,5,6-Tetrahydro-2H-[1,2′]bipyridinyl-5′-yl)-imidazo[1,2-a]pyridin-3-yl]-phenyl}-3-(2,2,2-trifluoro-ethyl)-urea hydrochloride], for which the IC50 in assay [1] is 0.29 µM; in assay [2] it was 0.017 µM.
On to `CN(C)C1CCN(c2ccc(-c3ccn4c(-c5cccc(NC(=O)NCC(F)(F)F)c5)cnc4c3)nn2)CC1` [Example 36, 1-(3-{7-[6-(4-Dimethylaminopiperidin-1-yl)pyridazin-3-yl]imidazo[1,2-a]pyridin-3-yl}-phenyl)-3-(2,2,2-trifluoroethyl)urea hydrochloride.], for which, in assay [1] (setting [3]), the inhibition at 10 µM stood at 0%. For the same molecule, the IC50 in assay [2] worked out at 0.065 µM.
`CN1CCC(n2cc(-c3ccn4c(-c5cccc(NC(=O)NCC(F)(F)F)c5)cnc4c3)cn2)CC1` [Example 6, 1-(3-{7-[1-(1-Methyl-piperidin-4-yl)-1H-pyrazol-4-yl]imidazo[1,2-a]pyridin-3-yl}phenyl)-3-(2,2,2-trifluoroethyl)urea]: the pIC50 in assay [1] was 6.06. Moreover, in assay [2], the IC50 stood at 0.0092 µM.
On the same counts, the results for `O=C(NCC(F)(F)F)Nc1cccc(-c2cnc3cc(-c4ncc(F)c(NCCO)n4)ccn23)c1` [Example 164] are 5.38 and 0.26 µM.
In the same order, the values of `CNc1ncc(-c2ccn3c(-c4cccc(NC(=O)NCC(F)(F)F)c4)cnc3c2)cc1C` [Example 161] are 6.82 and 0.01 µM.
For the molecule `O=C(NCC(F)(F)F)Nc1cccc(-c2cnc3cc(C#CCCO)ccn23)c1` [Example 19, 1-{3-[7-(4-Hydroxybut-1-ynyl)imidazo[1,2-a]pyridin-3-yl]phenyl}-3-(2,2,2-trifluoroethyl)urea], the pIC50 in assay [1] is 6.26. In addition, in assay [2], the IC50 amounted to 0.13 µM.
Regarding `O=C(NCC(F)(F)F)Nc1cccc(-c2cnc3cc(-c4nnc(C(F)(F)F)s4)ccn23)c1` [Example 17, 1-(2,2,2-Trifluoroethyl)-3-{3-[7-(5-trifluoromethyl[1,3,4]thiadiazol-2-yl)-imidazo[1,2-a]pyridin-3-yl]phenyl}urea], in assay [1], the pIC50 was 7.25. In addition, the IC50 in assay [2] stood at 0.044 µM.
`Cc1ccc(-c2ccn3c(-c4cccc(NC(=O)NCC(F)(F)F)c4)cnc3c2)nc1` [Example 91, 1-{3-[7-(5-Methyl-pyridin-2-yl)-imidazo[1,2-a]pyridin-3-yl]-phenyl}-3-(2,2,2-trifluoro-ethyl)-urea formate]: the IC50 came to 0.1 µM in assay [1] and 0.0079 µM in assay [2].
For `O=C(NCC(F)(F)F)Nc1cccc(-c2cnc3cc(-c4ccncn4)ccn23)c1` [Example 34, 1-[3-(7-Pyrimidin-4-ylimidazo[1,2-a]pyridin-3-yl)phenyl]-3-(2,2,2-trifluoroethyl)urea hydrochloride], the inhibition at 10 µM in assay [1] (setting [3]) was 0%. Further, the IC50 in assay [2] amounted to 0.013 µM.
With `O=C(NCC(F)(F)F)Nc1cccc(-c2cnc3cc(-c4cnc(N5CC(F)(F)C5)nc4)ccn23)c1` [Example 87, 1-(3-{7-[2-(3,3-Difluoro-azetidin-1-yl)-pyrimidin-5-yl]-imidazo[1,2-a]pyridin-3-yl}-phenyl)-3-(2,2,2-trifluoro-ethyl)-urea bis-trifluoroacetate], the IC50 in assay [1] came to 0.41 µM; in assay [2] it was 0.072 µM.
Turning to `CN1CCN(c2ncc(-c3ccn4c(-c5cccc(NC(=O)NCC(F)(F)F)c5)cnc4c3)cn2)CC1` [Example 79, 1-(3-{7-[2-(4-Methyl-piperazin-1-yl)-pyrimidin-5-yl]-imidazo[1,2-a]pyridin-3-yl}-phenyl)-3-(2,2,2-trifluoro-ethyl)-urea bis-formate], the IC50 worked out at 0.4 µM in assay [1] and 0.035 µM in assay [2].
Take `CNc1ccc(-c2ccn3c(-c4cccc(NC(=O)NCC(F)(F)F)c4)cnc3c2)nn1` [Example 132, 1-{3-[7-(6-Methylamino-pyridazin-3-yl)-imidazo[1,2-a]pyridin-3-yl]-phenyl}-3-(2,2,2-trifluoro-ethyl)-urea]: the inhibition at 10 µM in assay [1] (setting [3]) was 22.9%. The IC50 in assay [2] is 0.172 µM.
For `O=C(NCC(F)(F)F)Nc1cccc(-c2cnc3cc(-c4ccc(F)cn4)ccn23)c1` [Example 96, 1-{3-[7-(5-Fluoro-pyridin-2-yl)-imidazo[1,2-a]pyridin-3-yl]-phenyl}-3-(2,2,2-trifluoro-ethyl)-urea bis-hydrochloride], the IC50 in assay [1] is 1.7 µM; in assay [2] it was 0.0063 µM.
`O=C(NCC(F)(F)F)Nc1cccc(-c2cnc3cc(-c4ccc(N5CCCC(O)C5)nn4)ccn23)c1` (stereo not shown) [Example 133, 1-(3-{7-[6-(3-Hydroxy-piperidin-1-yl)-pyridazin-3-yl]-imidazo[1,2-a]pyridin-3-yl}-phenyl)-3-(2,2,2-trifluoro-ethyl)-urea]: in assay [1] (setting [3]), the inhibition at 3 µM stood at 34% and the inhibition at 10 µM is 31%. In addition, the IC50 in assay [2] is 0.0714 µM.
For `NCCNc1nc(-c2ccn3c(-c4cccc(NC(=O)NCC(F)(F)F)c4)cnc3c2)ncc1F` [Example 182], in assay [1], the pIC50 is 5.00. Also, in assay [2], the IC50 was determined as 2.5 µM.
In the case of `Cc1cnc(-c2ccn3c(-c4cccc(NC(=O)NCC(F)(F)F)c4)cnc3c2)nc1N` [Example 175], in assay [1], the pIC50 is 5.00. In addition, the IC50 in assay [2] turned out to be 0.077 µM.
In the case of `O=C(NCC(F)(F)F)Nc1cncc(-c2cnc3cc(-c4nncs4)ccn23)c1` [Example 24, 1-[5-(7-[1,3,4]Thiadiazol-2-ylimidazo[1,2-a]pyridin-3-yl)pyridin-3-yl]-3-(2,2,2-trifluoroethyl)urea hydrochloride], the inhibition at 10 µM in assay [1] (setting [3]) came out at 2.2%. Also, the IC50 in assay [2] is 0.57 µM.
For `O=C(NCC(F)(F)F)Nc1cccc(-c2cnc3cc(C#CCO)ccn23)c1` [Example 26, 1-{3-[7-(3-Hydroxyprop-1-ynyl)imidazo[1,2-a]pyridin-3-yl]phenyl}-3-(2,2,2-trifluoroethyl)urea], the pIC50 in assay [1] is 6.11. In addition, in assay [2], the IC50 stood at 0.27 µM.
In the case of `O=C(NCC(F)(F)F)Nc1cncc(-c2cnc3cc(Cl)ccn23)c1` [Example 31, 1-[5-(7-Chloroimidazo[1,2-a]pyridin-3-yl)pyridin-3-yl]-3-(2,2,2-trifluoroethyl)urea], the inhibition at 10 µM in assay [1] (setting [3]) amounted to 0%. The IC50 in assay [2] came to 0.82 µM.
`O=C(NCC(F)(F)F)Nc1cncc(-c2cnc3cc(C#CC4CC4)ccn23)c1` [Example 29, 1-[5-(7-Cyclopropylethynylimidazo[1,2-a]pyridin-3-yl)pyridin-3-yl]-3-(2,2,2-trifluoroethyl)urea]: the pIC50 in assay [1] is 5.51. Moreover, in assay [2], the IC50 stood at 0.12 µM.
Take `COc1ncc(-c2ccn3c(-c4cccc(NC(=O)NCC(F)(F)F)c4)cnc3c2)cc1C` [Example 188]: the pIC50 in assay [1] is 6.37. For the same molecule, the IC50 in assay [2] was 0.09 µM.
Take `O=C(NCC(F)(F)F)Nc1cccc(-c2cnc3cc(-c4cnn(C5CCNCC5)c4)ccn23)c1` [Example 4, 1-{3-[7-(1-Piperidin-4-yl-1H-pyrazol-4-yl)-imidazo[1,2-a]pyridin-3-yl]phenyl}-3-(2,2,2-trifluoroethyl)urea hydrochloride]: in assay [1] (setting [3]), the inhibition at 10 µM was 51%. The IC50 in assay [2] worked out at 0.077 µM.
Consider `Cc1cncc(-c2ccn3c(-c4cccc(NC(=O)NCC(F)(F)F)c4)cnc3c2)n1` [Example 100, 1-{3-[7-(6-Methyl-pyrazin-2-yl)-imidazo[1,2-a]pyridin-3-yl]-phenyl}-3-(2,2,2-trifluoro-ethyl)-urea], for which the pIC50 in assay [1] is 6.01. For the same molecule, the IC50 in assay [2] stood at 0.09 µM.
`Cc1nccc(-c2ccn3c(-c4cccc(NC(=O)NCC(F)(F)F)c4)cnc3c2)n1` [Example 61, 1-{3-[7-(2-Methyl-pyrimidin-4-yl)-imidazo[1,2-a]pyridin-3-yl]-phenyl}-3-(2,2,2-trifluoro-ethyl)-urea hydrochloride]: the inhibition at 10 µM in assay [1] (setting [3]) was 15%. Moreover, the IC50 in assay [2] was 0.064 µM.
Consider `CN1CC(n2cc(-c3ccn4c(-c5cccc(NC(=O)NCC(F)(F)F)c5)cnc4c3)cn2)C1` [Example 41, 1-(3-{7-[1-(1-Methyl-azetidin-3-yl)-1H-pyrazol-4-yl]-imidazo[1,2-a]pyridin-3-yl}-phenyl)-3-(2,2,2-trifluoro-ethyl)-urea formate], for which the figures for the IC50 in assay [1] and in assay [2] were 2.8 µM and 0.025 µM, respectively.

The values above are taken from patent publication US8796244B2, “Imidazopyridine derivatives as inhibitors of receptor tyrosine kinases” (Astex Therapeutics Ltd, priority 2008, dated 2014).
